This is an account of results in US11213509B2, “Compositions and methods for treating traumatic brain injury” (Ischemix, LLC, priority 2017, dated 2022).

Common to all, as to format: in vivo
The subject of assay [1] is lipid peroxidation (4-HNE). In words: Lipid peroxidation by 4-hydroxynonenal (4-HNE) Western blot, focal TBI model in piglets. To be noted: cortical penumbra, ipsilateral; vs placebo, p<0.001. As for the experimental part:
(§1) Study Design: A blinded, placebo controlled proof of concept trial of CMX-2043 was conducted in four-week-old piglets (8-10 kg). […] Sixteen piglets (n=16) were designated into three cohorts: 1) Controlled cortical impact (CCI) at the rostral gyrus treated with a bolus of CMX-2043 (n=5), 2) CCI injured animals treated with placebo (n=5) and 3) sham animals (n=6). CMX-2043 treated animals received an intravenous loading bolus of CMX-2043 (13.4 mg/kg) 1 hour post-TBI and a 4.5 mg/kg bolus at 13 hours post-TBI. Subjects were intubated, ventilated and anesthesia maintained on isoflurane (1.0%). Buprenorphine (0.02 mg/kg IM) was administered for analgesia immediately following intubation. Monitors recorded oxygen saturation, heart rate, respiration rate, rectal temperature, and end tidal CO2. […] All piglets were sacrificed between 24-25 hours post-TBI.
Samples from the same ipsilateral injured region analyzed for mtROS were analyzed for oxidative damage by measuring 4-HNE as an assessment of lipid peroxidation by Western Blot analysis (EMD Millipore), normalized by GAPDH (EMD Millipore), and compared to placebo and shams.
In general terms: Immunoblotting shows a protein as a band on a membrane.

The subject of assay [2] is mitochondrial reactive oxygen species generation (mtROS). In words: Mitochondrial reactive oxygen species generation 24 hours post-CCI, focal TBI model in piglets. To be noted: p<0.0001 vs placebo. The protocol:
as §1
Mitochondrial Respiration and ROS Production: Twenty four hours post-CCI the ipsilateral penumbra and mirrored contralateral cortex were harvested. The rate of oxygen consumption was recorded via high-resolution Oroboros Oxygraph-2k™ with a specific Substrate-Uncouple-Inhibitor-Titration Protocol (SUIT). […] Maximal reserve capacity of the electron transfer system (ETSCI+CII) was measured by titrating the protonophore carbonyl cyanide p-(trifluoro-methoxy) phenylhydrazone (FCCP). […]

Assay [3] deals with rat model of focal TBI. Nature of the assay: Beam balance test, rat model of focal TBI (BCCI). From the text:
BCCI TBI to the medial frontal cortex (MFC) was induced by a cortical contusion device (Custom Design & Fabrication, Inc [CDF], Richmond, Va.). This device creates a reliable contusion injury to the exposed area of the brain with a brass-tipped impounder. (Hoffman et al., 1994). Rats were anesthetized with isoflurane (5%) (Novaplus™), and 02 (300 cm^3/min), and mounted in a stereotaxic frame. Under aseptic conditions, a sagittal incision was made in the scalp and the fascia retracted to expose the cranium. Then, a 6-mm diameter trephine drill was used to open the skull immediately anterior to the bregma. TBI of the MFC was made with a 5-mm-diameter rounded brass impactor attached to a computer-controlled piston propelled electronically with following parameters: velocity=2.5 m/s; depth=3 mm; duration=100 ms). After BCCI, any cortical surface hemorrhaging was controlled and the fascia and scalp sutured. […]
The beam balance test examined vestibulomotor reflex activity of the animals after injury. […] The animal was gently placed on a suspended narrow beam 1.5 cm wide with a rough surface and the duration for which it remained on the beam was measured with a maximum cutoff time of 60 sec. […]
Data are presented as mean±SEM and analyzed by one-way repeated measures Analysis of variance (ANOVA) in order to test the effects of treatment on beam balance times and Morris water maze performance. […]

Assay [4] relates to protein carboxylation. In words: Protein carboxylation by ELISA, focal TBI model in piglets. To be noted: cortical penumbra, ipsilateral; vs placebo, p<0.01. As for the experimental part: as §1
Samples from the same ipsilateral region that were analyzed for mtROS were analyzed for oxidative damage by measuring protein carboxylation (VWR Int'l), and compared to placebo and shams.
For orientation: In an ELISA, binding on a coated surface is turned into a signal by an enzyme label.

`CC(NC(=O)C(CCC(=O)O)NC(=O)CCCCC1CCSS1)C(=O)O` [CMX-2043, N—(R)-lipoyl-glutamylalanine]: the “Lipid peroxidation (4-HNE)” value in assay [1] was “significant reduction in lipid peroxidation”. Also, the “Mitochondrial ROS (mtROS) generation” value in assay [2] (contralateral) was 5.13±1.67 H2O2/(μmol O2/s*mg); in assay [2] (ipsilateral), 8.28±1.47 H2O2/(μmol O2/s*mg). Besides, the “Treatment efficacy in beam balance motor test” value in assay [3] (30 mg/kg intravenously) is listed as “not in the beam balance motor test”. The Beam balance time result in assay [3] (Day 3 following injury, 30 mg/kg IV, all groups) is “less than 3 seconds”. The “Protein carboxylation (ELISA)” value in assay [4] is “significant reduction in protein carboxylation”.
